From US7476753B2, “3-aryl-2-cyano-3-hydroxy-acrylic acid derivatives” (Ciba Specialty Chemicals Corporation, priority 2003, dated 2009)
In brackets after ≈: the same amount, converted by molar mass.

Legend:
S. mutans ATCC33402 = assay: MIC vs. oral germs, broth dilution method; type: cell-based, Streptococcus mutans; details: Streptococcus mutans, ATCC33402, 24 h, read-out: MHK (MIC) S. mutans ATCC33402
Description: (§1) b) Determination of MIC vs. different oral germs in the broth dilution method • Medium: Thioglycolate Bouillon with Hemin and Menadion Columbia Bouillon with Hemin and Menadion für P. gingivalis und P. nigrescens • diluent: the corresponding amount of the substances was pippeted directly • Examples of Test organisms: • Actinobacillus actinomycetemcomitans ATCC43718 • Streptococcus gordonii ATCC10558 • Streptococcus mutans ATCC33402 • Actinomyces viscosus ATCC43146 • Fusobacterium nucleatum subsp. polymorphum ATCC1095 • Porphyromonas gingivalis ATCC3277 • Prevotella nigrescens ATCC33563 • Incubation: 7-10 days at 37° C. under anaerobic conditions, resp. 24 h aerobically with 10% CO2 for Streptococci und A. actinomycetemcomitans • Test solution: Stock solutions in ethanol with 1500 ppm (w/w) are used from all test substances
(§2) Bacteria are taken from blood agar plates with cotton swabs and a suitable O.D. is adjusted in the corresponding medium (McFarland 0.5). This solution is used for F. nucleatum and P. nigrescens in undiluted state, for the other strains a dilution of 1:20 is used. To each 2 ml of active ingredient containing solution 0.1 ml of the bacteria culture is added and incubated as described above.

P. nigrescens ATCC33563 = assay: MIC vs. oral germs, broth dilution method; type: cell-based, Prevotella nigrescens; details: Prevotella nigrescens, ATCC33563, read-out: MHK (MIC) P. nigrescens ATCC33563
Description: as §1, §2

[1] = test system: A. actinomycetemcomitans ATCC43718; assay: MIC vs. oral germs, broth dilution method; type: cell-based, Actinobacillus actinomycetemcomitans; details: Aggregatibacter actinomycetemcomitans, ATCC43718, 24 h, read-out: MHK (MIC) A. actinomycetemcomitans ATCC43718
Description: as §1, §2

[2] = test system: F. nucleatum subsp. polymorphum ATCC10953; assay: MIC vs. oral germs, broth dilution method; type: cell-based, Fusobacterium nucleatum subsp. polymorphum; details: Fusobacterium nucleatum, ATCC10953, read-out: MHK (MIC) F. nucleatum subsp. polymorphum ATCC10953
Description: as §1, §2

[3] = test system: Staphylococcus aureus ATCC 6538; assay: Automatic MIC-Screening, broth dilution method; type: cell-based; details: micro titer plates, 37° C., 24 hours, tested 120 to 3.75 μg/ml
Experimental: (§3) Determination of the Minimum Inhibitory Concentration (MIC Value)
(§4) 8 μl of each dilution step is mixed with 192 μl of nutrient medium in micro titer plates. The plates are incubated at 37° C. for 24 hours and then the highest dilution (lowest concentration) of the test substance at which growth is just no longer discernible is determined (corresponds to the MIC).

[4] = test system: Actinomyces viscosus ATCC 43146; assay: Automatic MIC-Screening, broth dilution method; type: cell-based; details: micro titer plates, 37° C., 24 hours, tested 120 to 3.75 μg/ml
Experimental: as §3, §4

[5] = test system: Corynebacterium sp. (Corynebacterium xerosis ATCC 373 oder C. minutissimum ATCC 23348); assay: Automatic MIC-Screening, broth dilution method; type: cell-based; details: micro titer plates, 37° C., 24 hours, tested 120 to 3.75 μg/ml
Experimental: as §3, §4

S. gordonii ATCC10558 = assay: MIC vs. oral germs, broth dilution method; type: cell-based, Streptococcus gordonii; details: Streptococcus gordonii, ATCC10558, 24 h, read-out: MHK (MIC) S. gordonii ATCC10558
Description: as §1, §2

[6] = test system: Corynebacterium xerosis ATCC 373; assay: MIC, Agar incorporation test; type: cell-based; details: Corynebacterium xerosis, ATCC373, 24 hours at 37° C.
Experimental: (§5) 0.3 ml of each dilution step is mixed with 15 ml of nutrient medium while the latter is still liquid. After the nutrient medium has solidified, 10 μl of each of the following organism dilutions of the test strains in 0.85% NaCl solution are spotted onto the agar medium.
(§6) The plates are incubated during 24 hours at 37° C. and then the highest dilution (lowest concentration) of the test substance at which growth is just no longer discernible (corresponds to the MIC) is determined.

[7] = test system: Aspergillus niger ATCC 6275; assay: MIC, Agar incorporation test; type: cell-based; details: Aspergillus niger, ATCC6275
Experimental: as §5, §6

[8] = test system: Propionibacterium acnes ATCC 6919; assay: MIC, Agar incorporation test; type: cell-based; details: Cutibacterium acnes, ATCC6919, 24 hours at 37° C.
Experimental: as §5, §6

[9] = test system: C. minutissimum ATCC 23348; assay: MIC, Agar incorporation test; type: cell-based; details: Corynebacterium minutissimum, ATCC23348, 24 hours at 37° C.
Experimental: as §5, §6

[10] = test system: Staphylococcus aureus ATCC 6538; assay: MIC, Agar incorporation test; type: cell-based; details: Staphylococcus aureus, ATCC6538, 24 hours at 37° C.
Experimental: as §5, §6

[11] = test system: Pseudomonas aeruginosa ATCC 15442; assay: MIC, Agar incorporation test; type: cell-based; details: Pseudomonas aeruginosa, ATCC15442, 24 hours at 37° C.
Experimental: as §5, §6

[12] = test system: Escherischia coli ATCC 10536; assay: MIC, Agar incorporation test; type: cell-based; details: 24 hours at 37° C.
Experimental: as §5, §6

[13] = test system: Staphylococcus epidermidis ATCC 12228; assay: MIC, Agar incorporation test; type: cell-based; details: Staphylococcus epidermidis, ATCC12228, 24 hours at 37° C.
Experimental: as §5, §6

[14] = test system: Proteus vulgaris ATCC 6896; assay: MIC, Agar incorporation test; type: cell-based; details: Proteus vulgaris, ATCC6896, 24 hours at 37° C.
Experimental: as §5, §6

[15] = test system: Klebsiella pneumoniae ATCC 4352; assay: MIC, Agar incorporation test; type: cell-based; details: Klebsiella pneumoniae, ATCC4352, 24 hours at 37° C.
Experimental: as §5, §6

P. gingivalis ATCC3277 = assay: MIC vs. oral germs, broth dilution method; type: cell-based, Porphyromonas gingivalis; details: Porphyromonas gingivalis, ATCC3277, read-out: MHK (MIC) P. gingivalis ATCC3277
Description: as §1, §2

[16] = test system: Candida albicans ATCC 10231; assay: MIC, Agar incorporation test; type: cell-based; details: Candida albicans, ATCC10231, 72 h, Sabouraud 4% glucose agar, 3 days at 28° C.
Experimental: 0.3 ml of each dilution step is mixed with 15 ml of nutrient medium while the latter is still liquid. After the nutrient medium has solidified, 10 μl of each of the following organism dilutions of the test strains in 0.85% NaCl solution are spotted onto the agar medium. […]

A. viscosus ATCC43146 = assay: MIC vs. oral germs, broth dilution method; type: cell-based, Actinomyces viscosus; details: Actinomyces viscosus, ATCC43146, read-out: MHK (MIC) A. viscosus ATCC43146
Description: as §1, §2

SMILES	MIC (S. mutans ATCC33402)	MIC (P. nigrescens ATCC33563)	MIC [1]	MIC [2]	MIK (MIC) S. aureus [3]	MIK (MIC) A. viscosus [4]	MIK (MIC) Corynebacterium sp. [5]	MIC (S. gordonii ATCC10558)	MIC [6]	MIC [7]	MIC [8]	MIC [9]	MIC [10]	MIC [11]	MIC [12]	MIC [13]	MIC [14]	MIC [15]	MIC (P. gingivalis ATCC3277)	MIC [16]	also measured
CCCCOC(=O)/C(C#N)=C(\O)c1ccc(-c2ccccc2)cc1 [(101b), 3-biphenyl-4-yl-2-cyano-3-hydroxy-acrylic acid butylester]	5.63 µg/mL (≈ 17.5 µM)	> 15 µg/mL	15 µg/mL (≈ 46.7 µM)	≤ 0.94 µg/mL	7.5 μγ/ml	7.5 μγ/ml	15 μγ/ml	3.75 µg/mL (≈ 11.7 µM)	3.13 µg/mL (≈ 9.74 µM)	> 100 µg/mL	12.5 µg/mL (≈ 38.9 µM)	12.5 µg/mL (≈ 38.9 µM)	6.25 µg/mL (≈ 19.4 µM)	> 100 µg/mL	> 100 µg/mL	6.25 µg/mL (≈ 19.4 µM)	> 100 µg/mL	> 100 µg/mL	3.75 µg/mL (≈ 11.7 µM)	> 100 µg/mL	MIC (A. viscosus ATCC43146): 3.75 µg/mL (≈ 11.7 µM)
CC(C)COC(=O)/C(C#N)=C(\O)c1ccc(-c2ccccc2)cc1 [(101c), 3-biphenyl-4-yl-2-cyano-3-hydroxy-acrylic acid isobutylester]	5.63 µg/mL (≈ 17.5 µM)	> 15 µg/mL	15 µg/mL (≈ 46.7 µM)	7.5 µg/mL (≈ 23.3 µM)	7.5 μγ/ml	7.5 μγ/ml	7.5 μγ/ml	3.75 µg/mL (≈ 11.7 µM)	3.13 µg/mL (≈ 9.74 µM)	> 50 µg/mL	12.5 µg/mL (≈ 38.9 µM)	12.5 µg/mL (≈ 38.9 µM)	12.5 µg/mL (≈ 38.9 µM)	> 50 µg/mL	> 50 µg/mL	6.25 µg/mL (≈ 19.4 µM)	> 50 µg/mL	> 50 µg/mL	7.5 µg/mL (≈ 23.3 µM)	> 50 µg/mL	MIC (A. viscosus ATCC43146): 7.5 µg/mL (≈ 23.3 µM)
CCCCCCCCOC(=O)/C(C#N)=C(\O)c1ccc(-c2ccccc2)cc1 [(101d), 3-biphenyl-4-yl-2-cyano-3-hydroxy-acrylic acid octylester]	≤ 0.94 µg/mL	> 15 µg/mL	≥ 15 µg/mL	15 µg/mL (≈ 39.7 µM)	<3.75 μγ/ml	<3.75 μγ/ml	<3.75 μγ/ml	≤ 0.94 µg/mL	< 1.56 µg/mL	> 400 µg/mL	6.25 µg/mL (≈ 16.6 µM)	< 1.56 µg/mL	< 1.56 µg/mL	> 400 µg/mL	> 400 µg/mL	< 1.56 µg/mL	> 400 µg/mL	> 400 µg/mL	7.5 µg/mL (≈ 19.9 µM)	> 400 µg/mL	MIC (A. viscosus ATCC43146): ≤ 0.94 µg/mL
